This note sets out measurements from patent US20050220779A1, “Integrin linked kinase modulation of macrophage activation” (priority 2001, published 2005).

In test [1] the test system is C57BL/6 cells (primary peritoneal macrophages). Put plainly: LPS-IFN-γ-induced macrophage NO production (Griess nitrite assay), C57BL/6 cells. It counts as cell-based, mouse. The conditions noted are these: 50 μM, 24 h; for NO release (%): relative to DMSO treated cells; for inhibition at 50 µM: Mus musculus, Peritoneal macrophage. On the procedure:
Isolation of primary mouse macrophages. Peritoneal exudate macrophages were isolated by peritoneal lavage with ice-cold sterile physiological saline 24 h after intraperitoneal injection of BALB/c and CB57BL/6 mice with 0.3 ml of sterile Zymosan A (1 mg/0.5 ml 0.9% saline). Cells were washed, resuspended in RPMI 1640 supplemented with 2 mM L-glutamine, 100 units/ml penicillin, 100 μg/ml streptomycin, and 5% FBS.
Treatment of primary macrophages and RAW 264.7 cells. Primary macrophages (1.5×10^5 cells/well) and RAW 264.7 (4×10^4 cells/well) cells were grown in 96-well plates (nitrite assay), or 6-well plates (2×10^6 cells/well) for measurement of iNOS and COX-2 expression. Following 3 h incubation, at 37 C, 5% CO2 (macrophages were allowed to attach) cells were stimulated with LPS (0.5 μg/ml) and IFN-γ (100 U/ml) in the absence or presence of various concentrations of ILK inhibitors (all treatments were replicated six times). Cells were incubated for an additional 24 h, and cell free culture supernatants from each well were collected for NO and cytokine determination. The remaining cells were stained with crystal violet to determine effect of the inhibitors on cell survival.
NO production. Following stimulation, the production of NO was determined by assaying culture supernatants for NO2^−, a stable reaction product of NO with molecular oxygen. Briefly, 100 μl of culture supernatant was reacted with an equal volume of Griess reagent at room temperature for 10 min. The absorbance at 550 nm was determined. All measurements were performed six times. The concentration of NO2^−was calculated by comparison with a standard curve prepared using NaNO2.
Effects of ILK inhibitors on LPS-IFN-γ-induced NO release. […] […] To compare the effect of the compounds across three different cell types, the NO release for each cell type was expressed relative to DMSO treated cells. […] For example, macrophages from Balb/c and C57BL/6 mice responded similarly to the treatment with the compounds.
Background: The Griess reaction detects nitrite, a stable product of nitric oxide.

Test [2] concerns the target T1, integrin linked kinase (full-length recombinant GST-ILK) (Homo sapiens, UniProt Q13418).
T1 construct: The target integrin linked kinase is a full-length recombinant protein expressed in sF9 insect cells; made in house; host or cells: baculovirus; virus amplified in Sf9, protein expressed in Hi5 insect cells
T1 sequence (Q13418 1-452): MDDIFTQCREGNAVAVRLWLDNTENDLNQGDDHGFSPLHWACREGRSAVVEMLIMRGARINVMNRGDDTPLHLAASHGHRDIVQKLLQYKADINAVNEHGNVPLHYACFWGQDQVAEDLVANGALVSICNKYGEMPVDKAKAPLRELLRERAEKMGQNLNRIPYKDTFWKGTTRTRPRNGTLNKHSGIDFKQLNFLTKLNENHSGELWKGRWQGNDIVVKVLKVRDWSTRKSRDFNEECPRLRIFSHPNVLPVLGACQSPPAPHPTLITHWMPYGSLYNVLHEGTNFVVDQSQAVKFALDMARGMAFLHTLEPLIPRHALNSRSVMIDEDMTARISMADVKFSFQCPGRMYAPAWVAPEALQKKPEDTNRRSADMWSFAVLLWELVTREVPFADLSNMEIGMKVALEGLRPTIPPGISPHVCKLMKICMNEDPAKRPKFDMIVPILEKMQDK
Put plainly: ILK kinase inhibition assay (phosphocellulose filter, scintillation counting). The class given is biochemical. How it is done: Inhibition Assay: Compounds were received in lyophilized form and stored at −20° C. Stock solutions were made by weighing out the compounds and dissolving them in dimethyl sulfoxide (DMSO) to a standard concentration, usually 20 mM, and stored at −20° C. […] Diluted 100% DMSO was used as a negative control.
5 μl of each compound dilution were robotically pipetted to Costar serocluster plates maintaining the same plate format. All assays consisted of the following volumes: • 5 μl diluted compound • 10 μl enzyme preparation • 5 μl substrate • 5 μl assay ATP and were then incubated 15 min at room temperature.
From each reaction, 10 μl of reaction mix was spotted onto Millipore Multiscreen-PH opaque plates and washed 2×10 min in 1% phosphoric acid. The plates were dried for at 40° C. for 30 min, then the substrate phosphate complexes were quantitated by scintillation counting. These Millipore plates are in a 96 well format with immobilized P81 phosphocellulose membranes. Both the phosphorylated and non-phosphorylated form of the substrate bind to the membrane while ATP (unincorporated phosphate) is removed in the subsequent wash steps.
Integrin Linked Kinase: The target integrin linked kinase is a full-length recombinant protein expressed in sF9 insect cells by baculovirus infection. The ILK1 substrate is […]-amide.
Recombinant ILK protein was expressed using cultured insect cells and a baculovirus expression system.
A large scale plasmid preparation of the resulting transfer construct was made using a Qiagen Plasmid Midi Kit. This ILK transfer construct was then co-transfected with BaculoGold DNA (Pharmingen) into Sf9 insect cells (Invitrogen) and a high titre preparation of GST-ILK recombinant baculovirus was produced by amplification in Sf9 cells. Liter scale expression of GST-ILK recombinant protein was done in 1000 ml spinner flasks (Bellco) by infection of Hi5 insect cells (invitrogen) grown in Ex-Cell 400 Serum Free Media (JRH Biosciences) at a multiplicity of infection of approximately 5. The cells were harvested three days after infection and lysed in Hypotonic Lysis Buffer (HLB; 10 mM imidazole, 5 mM EDTA, 0.1% β-mercaptoethanol, 10 ug/ml PMSF, 1 mM benzamidine) by sonication. The lysate was centrifuged at 10,000×g for 20 min and the supernatant was discarded. The pellet was washed twice in HLB and then washed twice in High Salt Buffer (HSB; 500 mM NaCl, 10 mM imidazole, 5 mM EDTA, 0.1% β-mercaptoethanol, 10 ug/mI PMSF, 1 mM benzamidine). The pellet was then resuspended in DNAse-ATP Buffer (DAB; 10 mM MgCl2, 1 mM MnCl2, β-methyl aspartic acid, 2 mM NaF, 0.55 mg/ml ATP, 1 ug/ml DNAse l, 1% NP-40, 10 mM imidazole, 5 mM EDTA, 0.1% β-mercaptoethanol, 10 ug/ml PMSF, 1 mM benzamidine) and stirred for 30 min at room temperature, and then centrifuged at 10,000×g for 20 min. The pellet was resuspended in High Salt Detergent buffer (HDB; 1% NP-40, 1% Triton X-100, 500 mM NaCl, 10 mM imidazole, 5 mM EDTA, 0.1% β-mercaptoethanol, 10 ug/ml PMSF, 1 mM benzamidine), stirred for 30 min at room temperature, and then centrufuged at 10,000×g for 20 min. The pellet was then washed once in each of HDB, HSB, and HLB, centrifuging at 10,000×g each time. Finally, the pellet was resuspended in HLB.

As a reminder, the inhibition is the relative decrease from the control value, in per cent. Turning to `N=C(N)N/N=C/c1ccc(Cl)cc1Cl` [KP-16735], in test [1], the “NO release (%)” value was −7.0% and the inhibition at 50 µM was found to be 114%. For the same compound, the inhibition at 0.1 µM in test [2] (0.1 μM, corrected against the maximum observed inhibition) stood at 13%. Besides, in test [2] (0.3 μM, corrected against the maximum observed inhibition), the inhibition at 0.3 µM was -1%. The inhibition at 0.7 µM in test [2] (0.7 μM, corrected against the maximum observed inhibition) turned out to be 4%. For the same compound, the inhibition at 1.6 µM in test [2] (1.6 μM, corrected against the maximum observed inhibition) was 18%. The inhibition at 4.1 µM in test [2] (4.1 μM, corrected against the maximum observed inhibition) worked out at 32%. In addition, the inhibition at 10.2 µM in test [2] (10.2 μM, corrected against the maximum observed inhibition) is 69%. In addition, the inhibition at 25.6 µM in test [2] (25.6 μM, corrected against the maximum observed inhibition) was 85%. Moreover, the inhibition at 64 µM in test [2] (64.0 μM, corrected against the maximum observed inhibition) came to 99%. Also, the inhibition at 160 µM in test [2] (160.0 μM, corrected against the maximum observed inhibition) is 102%. For the same compound, the inhibition at 400 µM in test [2] (400.0 μM, corrected against the maximum observed inhibition) came to 99%.
As to `Oc1ccc2c(c1)CC1NCCc3cc(O)c(O)c-2c31` (stereo not drawn) [KP-21849, 5,6,6a,7-Tetrahydro-4H-dibenzo[de,g]quinoline-1,2,9-triol], in test [1], the “NO release (%)” value is −8.0% and the inhibition at 50 µM was found to be 118%. Moreover, in test [2], the “inhibits ILK at” value is 2 µM.
